According to patent publication US20240124545A1, “COMPOSITIONS AND METHODS RELATING TO THE TREATMENT OF DISEASES” (ILC THERAPEUTICS LIMITED, priority 2021, published 2024):
Several values for one entry are separate records, joined by “and”; a condition that tells them apart may be missing. Equal entries are not always repeated. Where two headings read alike, the source gives them in different places.

What was measured:
[1] = XTT viability (cytotoxicity) assay, uninfected HeLa-CD4-βgal cells (Experiment 4); conditions: human, uninfected HeLa-CD4-βgal cells
in vitro [2] = conditions: human, uninfected HeLa-CD4-βgal cells
in vitro [3] = conditions: human, uninfected HeLa-CD4-βgal cells; remark: listed apart in the source
HIV-1 LAI [4] = conditions: for HIV Infectivity in HeLa CD4 βgal cells (β-gal units) - antiviral control / HIV Infectivity in HeLa CD4 βgal cells, percentage of vehicle - antiviral control: single data point
HIV-1 LAI [5] = assay: HIV-1 LAI infectivity assay with β-galactosidase readout (Experiment 5); format: cell-based, human immunodeficiency virus type 1 (HIV-1) LAI strain; conditions: for HIV infection blocked by control antiviral: 0.5 μM

enfuvirtide
CC50 at 48 h [1]: > 20 µM | viability at 48 h, 5e-05 µM (in vitro [2]): 87.9% | viability at 48 h, 0.0003 µM (in vitro [2]): 87.4% | viability at 48 h, 0.001 µM (in vitro [2]): 81.4% | viability at 48 h, 0.006 µM (in vitro [2]): 83.7% | viability at 48 h, 0.03 µM (in vitro [2]): 79.6% | viability at 48 h, 0.2 µM (in vitro [2]): 82.5% | viability at 48 h, 0.8 µM (in vitro [2]): 83.8% | viability at 48 h, 4 µM (in vitro [2]): 74.4% | viability at 48 h, 20 µM (in vitro [2]): 57.1% | viability at 48 h, 0.5 µM (in vitro [3]): 93.1 ± 2.3% | loss of cell viability with control inhibitor (HeLa-CD4-βgal cells): minimal loss of cell viability | HIV Infectivity in HeLa CD4 βgal cells (β-galactosidase units) (HIV-1 LAI [4]): 3,399 RLU and 4,452 RLU | HIV Infectivity in HeLa-CD4-βgal cells (% vehicle) (HIV-1 LAI [4]): 0.1 % vehicle | HIV Infectivity in HeLa CD4 βgal cells (β-gal units) - antiviral control (HIV-1 LAI [4]; 0.00005 μM): 1,159,781 RLU | HIV Infectivity in HeLa CD4 βgal cells, percentage of vehicle - antiviral control (HIV-1 LAI [4]; 0.00005 μM): 102.2 % vehicle | HIV Infectivity in HeLa CD4 βgal cells (β-gal units) - antiviral control (HIV-1 LAI [4]; 0.0003 μM): 1,083,305 RLU | HIV Infectivity in HeLa CD4 βgal cells, percentage of vehicle - antiviral control (HIV-1 LAI [4]; 0.0003 μM): 95.4 % vehicle | HIV Infectivity in HeLa CD4 βgal cells (β-gal units) - antiviral control (HIV-1 LAI [4]; 0.001 μM): 1,061,348 RLU | HIV Infectivity in HeLa CD4 βgal cells, percentage of vehicle - antiviral control (HIV-1 LAI [4]; 0.001 μM): 93.5 % vehicle | HIV Infectivity in HeLa CD4 βgal cells (β-gal units) - antiviral control (HIV-1 LAI [4]; 0.006 μM): 518,832 RLU | HIV Infectivity in HeLa CD4 βgal cells, percentage of vehicle - antiviral control (HIV-1 LAI [4]; 0.006 μM): 45.5 % vehicle | HIV Infectivity in HeLa CD4 βgal cells (β-gal units) - antiviral control (HIV-1 LAI [4]; 0.03 μM): 73,650 RLU | HIV Infectivity in HeLa CD4 βgal cells, percentage of vehicle - antiviral control (HIV-1 LAI [4]; 0.03 μM): 6.2 % vehicle | HIV Infectivity in HeLa CD4 βgal cells (β-gal units) - antiviral control (HIV-1 LAI [4]; 0.2 μM): 19,736 RLU | HIV Infectivity in HeLa CD4 βgal cells, percentage of vehicle - antiviral control (HIV-1 LAI [4]; 0.2 μM): 1.5 % vehicle | HIV infection blocked by control antivirals (HIV-1 LAI [4]; 0.5 μM): ~100% | HIV Infectivity in HeLa CD4 βgal cells (β-gal units) - antiviral control (HIV-1 LAI [4]; 0.8 μM): 2,604 RLU | HIV Infectivity in HeLa CD4 βgal cells, percentage of vehicle - antiviral control (HIV-1 LAI [4]; 0.8 μM): 0.0 % vehicle | HIV Infectivity in HeLa CD4 βgal cells (β-gal units) - antiviral control (HIV-1 LAI [4]; 4.0 μM): 1,950 RLU | HIV Infectivity in HeLa CD4 βgal cells, percentage of vehicle - antiviral control (HIV-1 LAI [4]; 4.0 μM): −0.1 % vehicle | HIV Infectivity in HeLa CD4 βgal cells (β-gal units) - antiviral control (HIV-1 LAI [4]; 20 μM): 1,538 RLU | HIV Infectivity in HeLa CD4 βgal cells, percentage of vehicle - antiviral control (HIV-1 LAI [4]; 20 μM): −0.1 % vehicle | block of HIV infection by control inhibitor (HIV-1 LAI [5]): completely blocked HIV infection | HIV infection blocked by control antiviral (HIV-1 LAI [5]): ~100% | HIV infection blocked by control antiviral (HIV-1 LAI [5]; listed as T20): over 99% | HIV-1 Infectivity in HeLa-CD4-βgal cells (% vehicle) (HIV-1 LAI [5]; control antiviral 0.5 μM, duplicate data points): 0.0 % vehicle | HIV Infectivity in HeLa CD4 βgal cells (β-galactosidase units) (HIV-1 LAI [5]; control antiviral 0.5 μM, individual values): 3,953 RLU and 3,657 RLU
